# Assay results published in patent publication US10512652B2, “Use of cymanquine compounds as antimalarial agents” (priority 2015, dated 2019).
# Tests used:
# [1] = test system: P. falciparum strain Dd2; experiment: [3H]-hypoxanthine incorporation growth inhibition, strain Dd2; assay type: cell-based, Plasmodium falciparum; conditions: multidrug resistant strain Dd2; 24 h treatment + 24 h [3H]-hypoxanthine; average of triplicate
# Experimental: (§1) P. falciparum strains were cultured under standard conditions in RPMI1640 medium supplemented with 0.5% Albumax in 90% N2, 5% 02 and 5% CO2. A modified version of the [^3H]-hypoxanthine incorporation method was employed for assessing growth inhibition by the inhibitor compounds. Briefly, P. falciparum strain Dd2 or strain D10ydhod (this strain express the Saccharomyces cerevisiae dihydroorotate dehydrogenase enzyme which renders mitochondrial electron transport nonessential in the parasite) parasites were seeded at 2% parasitemia in 96-well plates and treated with varying concentration of the inhibitors as well as the solvent (DMSO) for 24 h. [^3H]-Hypoxanthine was added to the cultures and incubation was continued for an additional 24 h. Incorporation of [^3H]-hypoxanthine by the parasites was determined by liquid scintillation. Growth inhibition was assessed as decrease in [^3H]-hypoxanthine incorporation in treated parasites relative to the control parasites treated with the solvent. The dose-response data were analyzed using nonlinear regression analysis (Prism GraphPad), and the EC50 was derived using an inhibitory sigmoid maximum effect (Emax) model. Each assay is completed in triplicate and the average EC50 was calculated. […]
# [2] = Cyclic voltammetry, anodic oxidation; assay type: physicochemical; conditions: irreversible, anodic peak potential, dichloromethane/0.05 M [NBu4][B(C6F5)4]
# Experimental: Electrochemical studies were carried out. The electrolyte solution used for these studies, namely dichloromethane with 0.05 M [NBu4][B(C6F5)4] as the supporting electrolyte, is known to provide an optimum medium for the electrochemical oxidation of compounds containing the MnCp(CO)3 (Cp=η^5-C5H5) backbone (Laws et al., J. Am. Chem. Soc. 2008, 130, 9859). The potentials given here are referred to the ferrocene/ferrocenium reference couple. The experiments were carried out in a controlled atmosphere which minimizes exposure to oxygen and water. We refer to two types of standard electrochemical techniques that are commonly described in books on electrochemistry: cyclic voltammetry and bulk electrolysis (Bard, A. J.; Faulkner, L. R. Electrochemical Methods, John Wiley & Sons, New York, 2001, second edition) The former is useful for the analytical and gross mechanistic aspects of the electron-transfer properties of a compound, whereas the latter is most often employed for the electro-synthetic function of making isolable quantities of electrochemical oxidation or reduction products.
# Anodic oxidation of the three compounds was investigated. […]
# Table of potentials (vs ferrocene/ferrocenium (FcH)) measured by cyclic voltammetry for oxidation of compounds 3, 4, and 5 in dichloromethane/0.05 M [NBu4][B(C6F5)4]. […]
# [3] = test system: P. falciparum strain D10ydhod; experiment: [3H]-hypoxanthine incorporation growth inhibition, strain D10ydhod; assay type: cell-based, Plasmodium falciparum; conditions: strain D10ydhod (expresses S. cerevisiae dihydroorotate dehydrogenase)
# Experimental: as §1
substance,measurement,setting,value
cymanquine [Compound 3],EC50,[1],~10.8 nM
same,Ep(1),[2]; first oxidation,0.82 V vs FcH
same,Ep(2),[2]; second oxidation,1.25 V vs FcH
same,potency against strain D10ydhod compared with strain Dd2,[3],Equivalent potency
